US4032625A, “Bone-seeking technetium-99m complex” (priority 1975, dated 1977)
Read-outs that look alike come from different tables or passages of the source.

Settings: 2 Hrs

## [85Sr] [^85 Sr]
0.01 mg/kg AEDP
  % Dose in Whole Organ: Blood: 2.99 % Dose
  % Dose in Whole Organ: Kidneys: 0.329 % Dose
  % Dose in Whole Organ: Liver: 0.568 % Dose
  % Dose in Whole Organ: Marrow: 0.465 % Dose
  % Dose in Whole Organ: Muscle: 4.98 % Dose
  % Dose in Whole Organ: W. Femur: 3.22 % Dose
  % Dose in Whole Organ: W. Tibia: 2.71 % Dose
  % Dose/1% Body weight: Blood: 0.427 % Dose/1% Body weight
  % Dose/1% Body weight: Bone Ave: 10.33 % Dose/1% Body weight
  % Dose/1% Body weight: Femur: 10.38 % Dose/1% Body weight
  % Dose/1% Body weight: Kidneys: 0.567 % Dose/1% Body weight
  % Dose/1% Body weight: Liver: 0.177 % Dose/1% Body weight
  % Dose/1% Body weight: Marrow: 0.211 % Dose/1% Body weight
  % Dose/1% Body weight: Muscle: 0.116 % Dose/1% Body weight
  % Dose/1% Body weight: Pelvis: 10.66 % Dose/1% Body weight
  % Dose/1% Body weight: Spine: 8.98 % Dose/1% Body weight
  % Dose/1% Body weight: Tibia: 11.28 % Dose/1% Body weight
  % Dose: Urine: 20.97 % Dose
0.01 mg/kg EHDP
  % Dose in Whole Organ: Blood: 3.19 % Dose
  % Dose in Whole Organ: Kidneys: 0.43 % Dose
  % Dose in Whole Organ: Liver: 0.74 % Dose
  % Dose in Whole Organ: Marrow: 0.42 % Dose
  % Dose in Whole Organ: One Femur: 2.83 % Dose
  % Dose/1%-body weight: Blood: 0.456 % Dose/1%-body weight
  % Dose/1%-body weight: Femur: 9.70 % Dose/1%-body weight
  % Dose/1%-body weight: Kidney: 0.655 % Dose/1%-body weight
  % Dose/1%-body weight: Liver: 0.206 % Dose/1%-body weight
  % Dose/1%-body weight: Marrow: 0.192 % Dose/1%-body weight
  % Dose: Urine: 23.66 % Dose
0.01 mg/kg MDP
  % Dose in Whole Organ: Blood: 3.27 % Dose
  % Dose in Whole Organ: Kidneys: 0.34 % Dose
  % Dose in Whole Organ: Liver: 0.65 % Dose
  % Dose in Whole Organ: Marrow: 0.53 % Dose
  % Dose in Whole Organ: Muscle: 5.69 % Dose
  % Dose in Whole Organ: One Femur: 3.46 % Dose
  % Dose/1% Body weight: Blood: 0.47 % Dose/1% body weight
  % Dose/1% Body weight: Femur: 13.93 % Dose/1% body weight
  % Dose/1% Body weight: Kidneys: 0.54 % Dose/1% body weight
  % Dose/1% Body weight: Liver: 0.16 % Dose/1% body weight
  % Dose/1% Body weight: Marrow: 0.24 % Dose/1% body weight
  % Dose/1% Body weight: Muscle: 0.13 % Dose/1% body weight
  % Dose/1% Body weight: Pelvis: 13.55 % Dose/1% body weight
  % Dose/1% Body weight: Spine: 12.78 % Dose/1% body weight
  % Dose/1% Body weight: Tibia: 7.14 % Dose/1% body weight
  % Dose/1% body weight: Ave Bone: 11.85 % Dose/1% body weight
  % Dose: Urine: 10.3 % Dose
0.05 mg/kg AEDP
  % Dose in Whole Organ: Blood: 2.50 % Dose
  % Dose in Whole Organ: Kidneys: 0.353 % Dose
  % Dose in Whole Organ: Liver: 0.613 % Dose
  % Dose in Whole Organ: Marrow: 0.486 % Dose
  % Dose in Whole Organ: Muscle: 5.09 % Dose
  % Dose in Whole Organ: W. Femur: 3.51 % Dose
  % Dose in Whole Organ: W. Tibia: 3.15 % Dose
  % Dose/1% Body weight: Blood: 0.357 % Dose/1% Body weight
  % Dose/1% Body weight: Bone Ave: 12.34 % Dose/1% Body weight
  % Dose/1% Body weight: Femur: 12.62 % Dose/1% Body weight
  % Dose/1% Body weight: Kidneys: 0.551 % Dose/1% Body weight
  % Dose/1% Body weight: Liver: 0.134 % Dose/1% Body weight
  % Dose/1% Body weight: Marrow: 0.221 % Dose/1% Body weight
  % Dose/1% Body weight: Muscle: 0.118 % Dose/1% Body weight
  % Dose/1% Body weight: Pelvis: 11.44 % Dose/1% Body weight
  % Dose/1% Body weight: Spine: 11.60 % Dose/1% Body weight
  % Dose/1% Body weight: Tibia: 13.69 % Dose/1% Body weight
  % Dose: Urine: 11.95 % Dose
0.05 mg/kg EHDP
  % Dose in Whole Organ: Blood: 3.39 % Dose
  % Dose in Whole Organ: Kidneys: 0.46 % Dose
  % Dose in Whole Organ: Liver: 0.77 % Dose
  % Dose in Whole Organ: Marrow: 0.61 % Dose
  % Dose in Whole Organ: One Femur: 3.33 % Dose
  % Dose/1%-body weight: Blood: 0.485 % Dose/1%-body weight
  % Dose/1%-body weight: Femur: 11.51 % Dose/1%-body weight
  % Dose/1%-body weight: Kidney: 0.616 % Dose/1%-body weight
  % Dose/1%-body weight: Liver: 0.210 % Dose/1%-body weight
  % Dose/1%-body weight: Marrow: 0.291 % Dose/1%-body weight
  % Dose: Urine: 13.4 % Dose
0.05 mg/kg MDP
  % Dose in Whole Organ: Blood: 3.66 % Dose
  % Dose in Whole Organ: Kidneys: 0.46 % Dose
  % Dose in Whole Organ: Liver: 0.71 % Dose
  % Dose in Whole Organ: Marrow: 0.53 % Dose
  % Dose in Whole Organ: Muscle: 5.89 % Dose
  % Dose in Whole Organ: One Femur: 2.53 % Dose
  % Dose/1% Body weight: Blood: 0.52 % Dose/1% body weight
  % Dose/1% Body weight: Femur: 9.10 % Dose/1% body weight
  % Dose/1% Body weight: Kidneys: 0.9 % Dose/1% body weight
  % Dose/1% Body weight: Liver: 0.22 % Dose/1% body weight
  % Dose/1% Body weight: Marrow: 0.24 % Dose/1% body weight
  % Dose/1% Body weight: Muscle: 0.14 % Dose/1% body weight
  % Dose/1% Body weight: Pelvis: 8.33 % Dose/1% body weight
  % Dose/1% Body weight: Spine: 6.75 % Dose/1% body weight
  % Dose/1% Body weight: Tibia: 4.94 % Dose/1% body weight
  % Dose/1% body weight: Ave Bone: 7.29 % Dose/1% body weight
  % Dose: Urine: 23.16 % Dose
0.1 mg/kg AEDP
  % Dose in Whole Organ: Blood: 2.48 % Dose
  % Dose in Whole Organ: Kidneys: 0.324 % Dose
  % Dose in Whole Organ: Liver: 0.654 % Dose
  % Dose in Whole Organ: Marrow: 0.244 % Dose
  % Dose in Whole Organ: Muscle: 5.15 % Dose
  % Dose in Whole Organ: W. Femur: 3.27 % Dose
  % Dose in Whole Organ: W. Tibia: 2.99 % Dose
  % Dose/1% Body weight: Blood: 0.354 % Dose/1% Body weight
  % Dose/1% Body weight: Bone Ave: 10.48 % Dose/1% Body weight
  % Dose/1% Body weight: Femur: 10.97 % Dose/1% Body weight
  % Dose/1% Body weight: Kidneys: 0.441 % Dose/1% Body weight
  % Dose/1% Body weight: Liver: 0.182 % Dose/1% Body weight
  % Dose/1% Body weight: Marrow: 0.166 % Dose/1% Body weight
  % Dose/1% Body weight: Muscle: 0.136 % Dose/1% Body weight
  % Dose/1% Body weight: Pelvis: 8.66 % Dose/1% Body weight
  % Dose/1% Body weight: Spine: 10.56 % Dose/1% Body weight
  % Dose/1% Body weight: Tibia: 11.71 % Dose/1% Body weight
  % Dose: Urine: 12.1 % Dose
0.1 mg/kg EHDP
  % Dose in Whole Organ: Blood: 3.10 % Dose
  % Dose in Whole Organ: Kidneys: 0.30 % Dose
  % Dose in Whole Organ: Liver: 0.64 % Dose
  % Dose in Whole Organ: Marrow: 0.43 % Dose
  % Dose in Whole Organ: One Femur: 3.42 % Dose
  % Dose/1%-body weight: Blood: 0.443 % Dose/1%-body weight
  % Dose/1%-body weight: Femur: 10.9 % Dose/1%-body weight
  % Dose/1%-body weight: Kidney: 0.513 % Dose/1%-body weight
  % Dose/1%-body weight: Liver: 0.230 % Dose/1%-body weight
  % Dose/1%-body weight: Marrow: 0.195 % Dose/1%-body weight
  % Dose: Urine: 11.31 % Dose
0.1 mg/kg MDP
  % Dose in Whole Organ: Blood: 3.95 % Dose
  % Dose in Whole Organ: Kidneys: 0.66 % Dose
  % Dose in Whole Organ: Liver: 1.05 % Dose
  % Dose in Whole Organ: Marrow: 0.57 % Dose
  % Dose in Whole Organ: Muscle: 9.32 % Dose
  % Dose in Whole Organ: One Femur: 2.80 % Dose
  % Dose/1% Body weight: Blood: 0.56 % Dose/1% body weight
  % Dose/1% Body weight: Femur: 10.0 % Dose/1% body weight
  % Dose/1% Body weight: Kidneys: 1.00 % Dose/1% body weight
  % Dose/1% Body weight: Liver: 0.30 % Dose/1% body weight
  % Dose/1% Body weight: Marrow: 0.26 % Dose/1% body weight
  % Dose/1% Body weight: Muscle: 0.22 % Dose/1% body weight
  % Dose/1% Body weight: Pelvis: 12.2 % Dose/1% body weight
  % Dose/1% Body weight: Spine: 8.45 % Dose/1% body weight
  % Dose/1% Body weight: Tibia: 6.05 % Dose/1% body weight
  % Dose/1% body weight: Ave Bone: 9.17 % Dose/1% body weight
  % Dose: Urine: 15.4 % Dose
0.5 mg/kg AEDP
  % Dose in Whole Organ: Blood: 4.36 % Dose
  % Dose in Whole Organ: Kidneys: 0.384 % Dose
  % Dose in Whole Organ: Liver: 0.720 % Dose
  % Dose in Whole Organ: Marrow: 0.456 % Dose
  % Dose in Whole Organ: Muscle: 6.51 % Dose
  % Dose in Whole Organ: W. Femur: 2.75 % Dose
  % Dose in Whole Organ: W. Tibia: 2.42 % Dose
  % Dose/1% Body weight: Blood: 0.624 % Dose/1% Body weight
  % Dose/1% Body weight: Bone Ave: 10.78 % Dose/1% Body weight
  % Dose/1% Body weight: Femur: 10.43 % Dose/1% Body weight
  % Dose/1% Body weight: Kidneys: 0.924 % Dose/1% Body weight
  % Dose/1% Body weight: Liver: 0.270 % Dose/1% Body weight
  % Dose/1% Body weight: Marrow: 0.207 % Dose/1% Body weight
  % Dose/1% Body weight: Muscle: 0.151 % Dose/1% Body weight
  % Dose/1% Body weight: Pelvis: 11.42 % Dose/1% Body weight
  % Dose/1% Body weight: Spine: 9.87 % Dose/1% Body weight
  % Dose/1% Body weight: Tibia: 11.37 % Dose/1% Body weight
  % Dose: Urine: 10.47 % Dose
0.5 mg/kg EHDP
  % Dose in Whole Organ: Blood: 4.43 % Dose
  % Dose in Whole Organ: Kidneys: 0.48 % Dose
  % Dose in Whole Organ: Liver: 0.76 % Dose
  % Dose in Whole Organ: Marrow: 0.34 % Dose
  % Dose in Whole Organ: One Femur: 2.48 % Dose
  % Dose/1%-body weight: Blood: 0.633 % Dose/1%-body weight
  % Dose/1%-body weight: Femur: 9.213 % Dose/1%-body weight
  % Dose/1%-body weight: Kidney: 0.972 % Dose/1%-body weight
  % Dose/1%-body weight: Liver: 0.244 % Dose/1%-body weight
  % Dose/1%-body weight: Marrow: 0.152 % Dose/1%-body weight
  % Dose: Urine: 19.67 % Dose
0.5 mg/kg MDP
  % Dose in Whole Organ: Blood: 3.11 % Dose
  % Dose in Whole Organ: Kidneys: 0.45 % Dose
  % Dose in Whole Organ: Liver: 0.69 % Dose
  % Dose in Whole Organ: Marrow: 0.67 % Dose
  % Dose in Whole Organ: Muscle: 5.65 % Dose
  % Dose in Whole Organ: One Femur: 2.96 % Dose
  % Dose/1% Body weight: Blood: 0.45 % Dose/1% body weight
  % Dose/1% Body weight: Femur: 11.32 % Dose/1% body weight
  % Dose/1% Body weight: Kidneys: 0.69 % Dose/1% body weight
  % Dose/1% Body weight: Liver: 0.23 % Dose/1% body weight
  % Dose/1% Body weight: Marrow: 0.30 % Dose/1% body weight
  % Dose/1% Body weight: Muscle: 0.13 % Dose/1% body weight
  % Dose/1% Body weight: Pelvis: 8.68 % Dose/1% body weight
  % Dose/1% Body weight: Spine: 8.92 % Dose/1% body weight
  % Dose/1% Body weight: Tibia: 6.16 % Dose/1% body weight
  % Dose/1% body weight: Ave Bone: 8.77 % Dose/1% body weight
  % Dose: Urine: 15.16 % Dose
